IC50 and IC90 data for 60 compounds are collected here from PubChem BioAssay AID743073 (Broad Institute, 2013).

The experiment relates to M. tuberculosis BioA-TetON overexpression strain, growth inhibition. The experiment can be described thus: PubChem AID 743073. The following applies: for IC90: IC90 growth inhibition.

The source made the active and inactive calls. How the calls were made is not given here.

Take `CC(=O)c1ccc(N2CCN(C(=O)c3ccc(F)cc3)CC2)cc1`: the IC50 was > 50 µM (inactive) and the IC90 is over 50 µM.

As for `CC(=O)c1ccc(N2CCN(C(=O)c3ccccc3)CC2)cc1`, the IC50 was > 50 µM (inactive) and the IC90 was over 50 µM.

On to `Cc1ccccc1/C=C(\CCC(=O)O)c1nc2ccccc2s1`, for which the IC50 was 6.5 µM and the IC90 is 43.5 µM.

With `CCc1ccc(N2CCN(C(=O)c3ccc4c(c3)OCO4)CC2)cc1`, the IC50 was 16.1 µM and the IC90 is over 50 µM.

With `Cc1nc2ccc(NC(=O)N3CCN(c4ccccc4)CC3)cc2s1`, the IC50 was 2.8 µM and the IC90 was found to be 23.6 µM.

On to `O=C(Nc1ccc2snnc2c1)N1CCCCC1`, for which the IC50 was 50 µM and the IC90 was over 50 µM.

In the case of `O=C(O)CC/C(=C\c1ccc([N+](=O)[O-])cc1)c1nc2ccccc2s1`, the IC50 was 8.3 µM and the IC90 was determined as 34.3 µM.

For the compound `O=C(Nc1cccnc1)c1cnn2c(C(F)(F)F)cc(-c3ccccc3)nc12`, the IC50 is > 50 µM (inactive) and the IC90 was over 50 µM.

For `COc1ccc(NC(=O)N2CCN(c3ccccc3)CC2)cc1`, the IC50 is > 50 µM (inactive) and the concentration for an effect of 90% (IC90) is over 50 µM.

For `COc1cc(/C=C/C(=O)Nc2cccnc2)cc(OC)c1OC`, the IC50 was > 50 µM (inactive) and the IC90 was over 50 µM.

With `Cc1nc2cc(NC(=O)N3CCN(c4ccccc4)CC3)ccc2o1`, the IC50 was 50 µM and the IC90 was over 50 µM.

Turning to `CC(=O)c1ccc(N2CCN(C(=O)c3ccc(Br)cc3)CC2)c(F)c1`, the IC50 is > 50 µM (inactive) and the IC90 is over 50 µM.

In the case of `O=C(Nc1ccc2snnc2c1)N1CCOCC1`, the IC50 is > 50 µM (inactive) and the IC90 is over 50 µM.

For the compound `Cc1ccc(NC(=O)N2CCN(c3ccccc3)CC2)cc1`, the IC50 was 50 µM and the IC90 was over 50 µM.

Consider `CC(=O)c1ccc(N2CCN(C(=O)c3ccc4ncsc4c3)CC2)cc1`, for which the IC50 was > 50 µM (inactive) and the IC90 was over 50 µM.

With `O=C(Nc1cccnc1)c1cc2nc(-c3cccs3)cc(C(F)(F)F)n2n1`, the IC50 is > 50 µM (inactive) and the IC90 is over 50 µM.

In the case of `Cc1ccc(-c2cc(C(F)(F)F)n3nc(C(=O)Nc4cccnc4)cc3n2)cc1`, the IC50 is > 50 µM (inactive) and the IC90 was over 50 µM.

For the compound `O=C(c1ccc2c(c1)OCO2)N1CCN(c2ccc(F)cc2)CC1`, the IC50 is 28.3 µM and the IC90 was over 50 µM.

Turning to `CCc1ccc(C(=O)N2CCN(Cc3ccc4c(c3)OCO4)CC2)cc1`, the concentration for half-maximal inhibition (IC50) was 11.2 µM and the IC90 was found to be 47.2 µM.

For `Cc1cc(C)n2nc(C(=O)Nc3cccnc3)nc2n1`, the IC50 was > 50 µM (inactive) and the IC90 is over 50 µM.

Consider `O=C(O)CC/C(=C\c1ccccc1[N+](=O)[O-])c1nc2ccccc2s1`, for which the IC50 was > 50 µM (inactive) and the IC90 was over 50 µM.

As to `O=C(Nc1ccc(F)cc1)N1CCN(c2ccccc2)CC1`, the half-maximal inhibitory concentration (IC50) is 19.3 µM and the IC90 was over 50 µM.

As to `O=C(c1ccc2c(c1)OCO2)N1CCN(c2ccc(Cl)cc2)CC1`, the IC50 is 11.6 µM and the IC90 is 47.2 µM.

With `CC(=O)c1ccc(N2CCN(C(=O)c3cccc(Cl)c3)CC2)cc1`, the IC50 is 44.3 µM (inactive) and the IC90 is over 50 µM.

Turning to `O=C(Nc1cccnc1)N1CCN(c2ccccc2)CC1`, the IC50 is > 50 µM (inactive) and the IC90 was over 50 µM.

As for `O=C(COc1ccc2ccc(=O)oc2c1)N1CCN(c2ccc(F)cc2)CC1`, the IC50 is > 50 µM (inactive) and the 90% effect concentration (IC90) is over 50 µM.

For the compound `Cc1cc(C)n2nc(C(=O)Nc3cccnc3)cc2n1`, the IC50 was > 50 µM (inactive) and the 90% effect concentration (IC90) is over 50 µM.

`CC(=O)c1ccc(N2CCN(C(=O)c3ccc4c(c3)OCO4)CC2)cc1`: the IC50 is 52 µM (inactive) and the IC90 is over 50 µM.

Turning to `COc1cccc(C(=O)N2CCN(c3ccc(C(C)=O)cc3)CC2)c1`, the IC50 was > 50 µM (inactive) and the IC90 was over 50 µM.

For `COC(=O)c1c(C(=O)OC)c(-c2cccc(F)c2)n2c1CS(=O)C2` (stereo not given), the IC50 was > 50 µM (inactive) and the concentration for an effect of 90% (IC90) was over 50 µM.

With `O=C(c1ccc2c(c1)OCO2)N1CCN(Cc2ccccc2)CC1`, the IC50 is > 50 µM (inactive) and the IC90 is over 50 µM.

On to `O=C(Nc1ccc2[nH]ccc2c1)N1CCN(c2ccccc2)CC1`, for which the IC50 is 7 µM and the IC90 is over 50 µM.

Consider `COc1cccc(NC(=O)N2CCN(c3ccccc3)CC2)c1`, for which the IC50 was 50 µM and the IC90 was over 50 µM.

Turning to `Cc1cccc(/C=C(\CCC(=O)O)c2nc3ccccc3s2)c1`, the IC50 is 3.1 µM and the IC90 was determined as 9 µM.

As to `O=C(Nc1ccc2snnc2c1)N1CCN(c2ccccc2)CC1`, the IC50 is > 50 µM (inactive) and the IC90 is over 50 µM.

With `COc1ccc(N2CCN(C(=O)c3ccc4c(c3)OCO4)CC2)cc1`, the half-maximal inhibitory concentration (IC50) is 17.6 µM and the IC90 was over 50 µM.

Consider `O=C(Nc1cccc(F)c1)N1CCN(c2ccccc2)CC1`, for which the IC50 is 12.8 µM and the IC90 was over 50 µM.

In the case of `CC(C)(C)c1ccc(C(=O)N2CCN(c3ccc4c(c3)OCO4)CC2)cc1`, the IC50 is 13.1 µM and the IC90 worked out at 36.9 µM.

`CC(=O)c1ccc(N2CCN(C(=O)c3ccc(C)cc3)CC2)cc1`: the IC50 is > 50 µM (inactive) and the IC90 is over 50 µM.

For the compound `CCOC(=O)N1CCN(C(=O)Nc2ccc3snnc3c2)CC1`, the IC50 is > 50 µM (inactive) and the IC90 was over 50 µM.

For the compound `COc1cccc(NC(=O)CCC2CCN(C(=O)c3ccc(C(C)=O)s3)CC2)c1`, the IC50 was > 50 µM (inactive) and the IC90 is over 50 µM.

Consider `CC(=O)c1ccc(N2CCN(Cc3ccc4c(c3)OCO4)CC2)cc1`, for which the IC50 is > 50 µM (inactive) and the IC90 was over 50 µM.

As to `COc1ccc(C(=O)N2CCN(c3ccc(C(C)=O)cc3)CC2)cc1`, the IC50 is > 50 µM (inactive) and the IC90 is over 50 µM.

As to `CCN(CC)c1ccc2cc(C(=O)c3cccs3)c(=O)oc2c1`, the IC50 is 6.4 µM and the IC90 was over 50 µM.

For the compound `CC(=O)c1ccc(N2CCN(C(=O)c3cccnc3)CC2)cc1`, the IC50 was > 50 µM (inactive) and the IC90 was over 50 µM.

Take `O=C(Nc1ccncc1)c1cc2nc(C3CC3)cc(C(F)F)n2n1`: the IC50 was > 50 µM (inactive) and the IC90 is over 50 µM.

Regarding `Cc1ccc(/C=C(\CCC(=O)O)c2nc3ccccc3s2)cc1`, the IC50 was 1.7 µM and the IC90 was found to be 5.8 µM.

In the case of `O=C(Nc1ccc(Cl)c(-c2nc3ccccc3[nH]2)c1)c1cccnc1`, the IC50 was 10.3 µM and the IC90 worked out at 39.5 µM.

In the case of `O=C(Nc1ccc(Cl)cc1)c1cc2nc(C3CC3)cc(C(F)(F)F)n2n1`, the IC50 was > 50 µM (inactive) and the IC90 is over 50 µM.

`O=C(c1ccc2c(c1)OCO2)N1CCN(c2ccccc2)CC1`: the IC50 is 24.4 µM and the IC90 is over 50 µM.

On to `COc1ccc(-c2cc(C(F)(F)F)n3nc(C(=O)Nc4cccnc4)cc3n2)cc1`, for which the IC50 was > 50 µM (inactive) and the IC90 was over 50 µM.

With `O=C(Nc1cccnc1)c1cnn2c(C(F)F)cc(C3CC3)nc12`, the IC50 is > 50 µM (inactive) and the IC90 was over 50 µM.

On to `O=C(Nc1ccccc1)N1CCN(c2ccccc2)CC1`, for which the IC50 was 9.9 µM and the IC90 was over 50 µM.

As for `O=C(Nc1cccc(Cl)c1)N1CCN(c2ccccc2)CC1`, the IC50 is 25.4 µM and the IC90 is over 50 µM.

For `Cc1ccc(/C=C(\CC(=O)O)c2nc3ccccc3s2)cc1[N+](=O)[O-]`, the IC50 was 11.7 µM and the IC90 was over 50 µM.

Consider `CC(=O)c1ccc(N2CCN(C(=O)c3cccc(F)c3)CC2)cc1`, for which the IC50 was > 50 µM (inactive) and the IC90 was over 50 µM.

With `Cc1ccc(/C=C(\CCCC(=O)O)c2nc3ccccc3s2)cc1[N+](=O)[O-]`, the IC50 is 5.6 µM and the IC90 is over 50 µM.

`CC(=O)c1ccc(N2CCN(C(=O)c3ccc(Cl)cc3)CC2)cc1`: the IC50 was > 50 µM (inactive) and the IC90 is over 50 µM.

As to `Cc1ccc(/C=C(\CCC(=O)O)c2nc3ccccc3s2)cc1[N+](=O)[O-]`, the IC50 is 1.5 µM and the IC90 stood at 4.7 µM.

As to `CC(=O)c1ccc(N2CCN(C(=O)c3ccc4c(c3)OCCO4)CC2)cc1`, the IC50 is > 50 µM (inactive) and the IC90 is over 50 µM.

For orientation: IC50 means the midpoint of a concentration-inhibition curve. The term IC90 denotes the concentration needed for an effect of 90%. Low values mean an effect from little substance, high ones a need for much substance.
